Results published in patent US20240199649A1 (Biosplice Therapeutics, Inc., priority 2022, published 2024).

Target: recombinant DYRK1A kinase (Homo sapiens (Human), UniProt Q13627)
Test: DYRK1A kinase assay (Ser/Thr 18 peptide Z-lyte FRET assay)
Format: biochemical
Conditions: DYRK1A 0.25 μg/mL, ATP 15 μM, Ser/Thr peptide 18 4 μM; one hour at room temperature; 11-point dose-response, duplicate
Protocol: Representative compounds were screened using the assay procedure for DYRK1A kinase activity as described below.
Each compound was dissolved in DMSO as a 10 mM stock and used to prepare compound source plates.
This is a non-radioactive assay using fluorescence resonance energy transfer (FRET) between coumarin and fluorescein to detect kinase activity which is represented as a ratio of coumarin emission/fluorescein emission.
The mixture was allowed to incubate with the representative compounds for one hour at room temperature. All reactions were performed in duplicate. Unphosphorylated (“0% Control”) and phosphorylated (“100% control”) forms of Ser/Thr 18 served as control reactions. Additionally, an 11-point dose-response curve of Staurosporine (1 uM top) was run to serve as a positive compound control.
After incubation, Development Reagent A was diluted in Development Buffer then added to the reaction and allowed to further incubate for one hour at room temperature.
Dose-response curves were generated, and inhibitory concentration (IC50) values were calculated using non-linear regression curve fit in the Dotmatics' Studies Software (Bishops Stortford, UK).

| IC50 [nM] | Compound |
| --- | --- |
| 365 | CNc1nc(N[C@@H]2CCN(C3COC3)CC2(F)F)nn2ccc(-c3ccc4ncn(CC(F)F)c4n3)c12 [Compound 351, (R)—N^2-(3,3-Difluoro-1-(oxetan-3-yl)piperidin-4-yl)-5-(3-(2,2-difluoroethyl)-3H-imidazo[4,5-b]pyridin-5-yl)-N^4-methylpyrrolo[2,1-f][1,2,4]triazine-2,4-diamine] |
| 4.2 | CNc1nc(N[C@H]2C[C@H](C(C)(C)O)C2)nn2ccc(-c3ccc4nc(C)n(CC(F)F)c4n3)c12 [Compound 355, 2-(trans-3-((5-(3-(2,2-Difluoroethyl)-2-methyl-3H-imidazo[4,5-b]pyridin-5-yl)-4-(methylamino)pyrrolo[2,1-f][1,2,4]triazin-2-yl)amino)cyclobutyl)propan-2-ol] |
| 2.1 | CNc1nc(N[C@H]2CN(C)CC2(F)F)nn2ccc(-c3ccc4nc(C)n(CC(F)F)c4n3)c12 [Compound 363, (S)—N^2-(4,4-Difluoro-1-methylpyrrolidin-3-yl)-5-(3-(2,2-difluoroethyl)-2-methyl-3H-imidazo[4,5-b]pyridin-5-yl)-N^4-methylpyrrolo[2,1-f][1,2,4]triazine-2,4-diamine] |
| 0.6 | CNc1nc(N[C@@H]2CN(C)CC2(F)F)nn2ccc(-c3ccc4nc(C)n(CC(F)F)c4n3)c12 [Compound 364, (R)—N^2-(4,4-Difluoro-1-methylpyrrolidin-3-yl)-5-(3-(2,2-difluoroethyl)-2-methyl-3H-imidazo[4,5-b]pyridin-5-yl)-N^4-methylpyrrolo[2,1-f][1,2,4]triazine-2,4-diamine] |
| 6.3 | CCN1C[C@H](Nc2nc(NC)c3c(-c4ccc5nc(C)n(CC(F)F)c5n4)ccn3n2)C(F)(F)C1 [Compound 365, (S)-5-(3-(2,2-Difluoroethyl)-2-methyl-3H-imidazo[4,5-b]pyridin-5-yl)-N^2-(1-ethyl-4,4-difluoropyrrolidin-3-yl)-N^4-methylpyrrolo[2,1-f][1,2,4]triazine-2,4-diamine] |
| 1.4 | CCN1C[C@@H](Nc2nc(NC)c3c(-c4ccc5nc(C)n(CC(F)F)c5n4)ccn3n2)C(F)(F)C1 [Compound 366, (R)-5-(3-(2,2-Difluoroethyl)-2-methyl-3H-imidazo[4,5-b]pyridin-5-yl)-N^2-(1-ethyl-4,4-difluoropyrrolidin-3-yl)-N^4-methylpyrrolo[2,1-f][1,2,4]triazine-2,4-diamine] |
| 6.4 | CNc1nc(N[C@H]2CN(C3COC3)CC2(F)F)nn2ccc(-c3ccc4nc(C)n(CC(F)F)c4n3)c12 [Compound 367, (S)—N^2-(4,4-difluoro-1-(oxetan-3-yl)pyrrolidin-3-yl)-5-(3-(2,2-difluoroethyl)-2-methyl-3H-imidazo[4,5-b]pyridin-5-yl)-N^4-methylpyrrolo[2,1-f][1,2,4]triazine-2,4-diamine] |
| 1.2 | CNc1nc(N[C@@H]2CN(C3COC3)CC2(F)F)nn2ccc(-c3ccc4nc(C)n(CC(F)F)c4n3)c12 [Compound 368, (R)—N^2-(4,4-Difluoro-1-(oxetan-3-yl)pyrrolidin-3-yl)-5-(3-(2,2-difluoroethyl)-2-methyl-3H-imidazo[4,5-b]pyridin-5-yl)-N^4-methylpyrrolo[2,1-f][1,2,4]triazine-2,4-diamine] |
| 2.9 | CNc1nc(NC2CCN(CCF)CC2)nn2ccc(-c3ccc4nc(C)n(CC(F)F)c4n3)c12 [Compound 369, 5-(3-(2,2-Difluoroethyl)-2-methyl-3H-imidazo[4,5-b]pyridin-5-yl)-N^2-(1-(2-fluoroethyl)piperidin-4-yl)-N^4-methylpyrrolo[2,1-f][1,2,4]triazine-2,4-diamine] |
| 15.5 | CNc1nc(NC2CCN(CC(F)(F)F)CC2)nn2ccc(-c3ccc4nc(C)n(CC(F)F)c4n3)c12 [Compound 370, 5-(3-(2,2-Difluoroethyl)-2-methyl-3H-imidazo[4,5-b]pyridin-5-yl)-N^4-methyl-N^2-(1-(2,2,2-trifluoroethyl)piperidin-4-yl)pyrrolo[2,1-f][1,2,4]triazine-2,4-diamine] |
| 2.2 | CNc1nc(NC2CCN(C3CC(F)(F)C3)CC2)nn2ccc(-c3ccc4nc(C)n(CC(F)F)c4n3)c12 [Compound 371, N^2-(1-(3,3-Difluorocyclobutyl)piperidin-4-yl)-5-(3-(2,2-difluoroethyl)-2-methyl-3H-imidazo[4,5-b]pyridin-5-yl)-N^4-methylpyrrolo[2,1-f][1,2,4]triazine-2,4-diamine] |
| 5 | CCN1CC[C@@H](Nc2nc(NC)c3c(-c4ccc5nc(C)n(CC(F)F)c5n4)ccn3n2)[C@@H](F)C1 [Compound 372, 5-(3-(2,2-Difluoroethyl)-2-methyl-3H-imidazo[4,5-b]pyridin-5-yl)-N^2-((3S,4R)-1-ethyl-3-fluoropiperidin-4-yl)-N^4-methylpyrrolo[2,1-f][1,2,4]triazine-2,4-diamine] |
| 3.8 | CCN1CC[C@H](Nc2nc(NC)c3c(-c4ccc5nc(C)n(CC(F)F)c5n4)ccn3n2)[C@H](F)C1 [Compound 373, 5-(3-(2,2-Difluoroethyl)-2-methyl-3H-imidazo[4,5-b]pyridin-5-yl)-N^2-((3R,4S)-1-ethyl-3-fluoropiperidin-4-yl)-N^4-methylpyrrolo[2,1-f][1,2,4]triazine-2,4-diamine] |
| 3.6 | CNc1nc(N[C@@H]2CCN(C3CC3)C[C@@H]2F)nn2ccc(-c3ccc4nc(C)n(CC(F)F)c4n3)c12 [Compound 377, N^2-((3S,4R)-1-Cyclopropyl-3-fluoropiperidin-4-yl)-5-(3-(2,2-difluoroethyl)-2-methyl-3H-imidazo[4,5-b]pyridin-5-yl)-N^4-methylpyrrolo[2,1-f][1,2,4]triazine-2,4-diamine] |
| 4.1 | CNc1nc(N[C@H]2CCN(C3CC3)C[C@H]2F)nn2ccc(-c3ccc4nc(C)n(CC(F)F)c4n3)c12 [Compound 378, N^2-((3R,4S)-1-Cyclopropyl-3-fluoropiperidin-4-yl)-5-(3-(2,2-difluoroethyl)-2-methyl-3H-imidazo[4,5-b]pyridin-5-yl)-N^4-methylpyrrolo[2,1-f][1,2,4]triazine-2,4-diamine] |
| 3.2 | CNc1nc(N[C@@H]2CCN(C3CC(F)(F)C3)C[C@@H]2F)nn2ccc(-c3ccc4nc(C)n(CC(F)F)c4n3)c12 [Compound 380, N^2-((3S,4R)-1-(3,3-Difluorocyclobutyl)-3-fluoropiperidin-4-yl)-5-(3-(2,2-difluoroethyl)-2-methyl-3H-imidazo[4,5-b]pyridin-5-yl)-N^4-methylpyrrolo[2,1-f][1,2,4]triazine-2,4-diamine] |
| 2.2 | CNc1nc(N[C@H]2CCN(C3CC(F)(F)C3)C[C@H]2F)nn2ccc(-c3ccc4nc(C)n(CC(F)F)c4n3)c12 [Compound 381, N^2-((3R,4S)-1-(3,3-Difluorocyclobutyl)-3-fluoropiperidin-4-yl)-5-(3-(2,2-difluoroethyl)-2-methyl-3H-imidazo[4,5-b]pyridin-5-yl)-N^4-methylpyrrolo[2,1-f][1,2,4]triazine-2,4-diamine] |
| 3.3 | [2H]C([2H])([2H])Nc1nc(N[C@@H]2CCN(C)CC2(F)F)nn2ccc(-c3ccc4nc(C)n(CC(F)F)c4n3)c12 [Compound 382, (R)—N^2-(3,3-Difluoro-1-methylpiperidin-4-yl)-5-(3-(2,2-difluoroethyl)-2-methyl-3H-imidazo[4,5-b]pyridin-5-yl)-N^4-(methyl-d3)pyrrolo[2,1-f][1,2,4]triazine-2,4-diamine] |
| 3.5 | CCN1CC[C@@H](Nc2nc(NC)c3c(-c4ccc5nc(C)n(CC(F)F)c5n4)ccn3n2)C(F)(F)C1 [Compound 383, (R)-5-(3-(2,2-Difluoroethyl)-2-methyl-3H-imidazo[4,5-b]pyridin-5-yl)-N^2-(1-ethyl-3,3-difluoropiperidin-4-yl)-N^4-methylpyrrolo[2,1-f][1,2,4]triazine-2,4-diamine] |
| 2 | CCN1CC[C@H](Nc2nc(NC)c3c(-c4ccc5nc(C)n(CC(F)F)c5n4)ccn3n2)C(F)(F)C1 [Compound 384, (S)-5-(3-(2,2-Difluoroethyl)-2-methyl-3H-imidazo[4,5-b]pyridin-5-yl)-N^2-(1-ethyl-3,3-difluoropiperidin-4-yl)-N^4-methylpyrrolo[2,1-f][1,2,4]triazine-2,4-diamine] |
| 4.6 | [2H]C([2H])([2H])Nc1nc(N[C@@H]2CCN(CC)CC2(F)F)nn2ccc(-c3ccc4nc(C)n(CC(F)F)c4n3)c12 [Compound 385, (R)-5-(3-(2,2-Difluoroethyl)-2-methyl-3H-imidazo[4,5-b]pyridin-5-yl)-N^2-(1-ethyl-3,3-difluoropiperidin-4-yl)-N^4-(methyl-d3)pyrrolo[2,1-f][1,2,4]triazine-2,4-diamine] |

| Compound | IC50 [nM] |
| --- | --- |
| CNc1nc(N[C@@H]2CCN(CCF)C[C@@H]2F)nn2ccc(-c3ccc4nc(C)n(CC(F)F)c4n3)c12 [Compound 374, 5-(3-(2,2-Difluoroethyl)-2-methyl-3H-imidazo[4,5-b]pyridin-5-yl)-N^2-((3S,4R)-3-fluoro-1-(2-fluoroethyl)piperidin-4-yl)-N^4-methylpyrrolo[2,1-f][1,2,4]triazine-2,4-diamine] | 2.2 |
| CNc1nc(N[C@H]2CCN(CCF)C[C@H]2F)nn2ccc(-c3ccc4nc(C)n(CC(F)F)c4n3)c12 [Compound 375, 5-(3-(2,2-Difluoroethyl)-2-methyl-3H-imidazo[4,5-b]pyridin-5-yl)-N^2-((3R,4S)-3-fluoro-1-(2-fluoroethyl)piperidin-4-yl)-N^4-methylpyrrolo[2,1-f][1,2,4]triazine-2,4-diamine] | 0.6 |
